“And” between values parts separate entries of the source, which are not always exact repeats. Equal values may be shown once.
Legend:
VMAT-2 [1] = biological target: T1, VMAT-2 (Rattus norvegicus, UniProt Q01827); assay: [3H]DHTBZ binding in purified striatal vesicles prepared from treated rats; settings: rats, MDMA 4 x 10 mg/kg s.c., both 1 and 24 h after treatment
Protocol: Synaptic vesicles were obtained from synaptosomes prepared from rat striatum as described above. Synaptosomes were resuspended and homogenized in cold distilled deionized water. Osmolarity was restored by addition of HEPES and potassium tartrate 245 and 100 mM (final concentrations; pH 7.5), respectively. Samples were centrifuged for 20 min at 20,000×g (4° C.) to remove lysed synaptosomal membranes. MgSO4 (1 mM, final concentration) was added to the supernatant, which was then centrifuged for 45 min at 100,000×g (4° C.). The resulting vesicular pellet was resuspended in wash buffer at a concentration of 50 mg/ml (original tissue weight). […] Binding of [^3H]DHTBZ was performed as described by Teng et al. (1998). Briefly, 200 μl of the synaptic vesicle preparation (˜6 μg of protein) was incubated in wash buffer in the presence of [^3H]DHTBZ (2 nM final concentration) for 10 min at 25° C. The reaction was terminated by addition of 1 ml of cold wash buffer and rapid filtration through Whatman GF/F filters soaked in 0.5% polyethylenimine. Filters were washed three times with ice-cold wash buffer. Nonspecific binding was determined by coincubation with 20 μM tetrabenazine. All protein concentrations were determined by a BioRad protein assay (Bio-Rad, Richmond, Calif.).
Binding of [^3H]DHTBZ was performed as described by Teng et al. (1998). Briefly, 200 μl (˜6 μg protein) of the synaptic vesicle preparation was incubated in wash buffer in the presence of [^3H]DHTBZ (2 nM final concentration except in kinetic analyses wherein 0.25-500 nM DHTBZ was employed) for 10 m in at 25° C. The reaction was terminated by addition of 1 ml cold wash buffer and rapid filtration through Whatman GF/F filters soaked in 0.5% polyethylenimine. Filters were washed three times with ice-cold wash buffer. Radioactivity trapped in filters was counted using a liquid scintillation counter. Nonspecific binding was determined by coincubation with 20 μM TBZ. All protein concentrations were determined by a Bio-Rad protein assay (Bio-Rad Inc.).
Binding of[^3H]DHTBZ was performed as described by Teng et al. (1998). Briefly, 200 μl (˜5 μg protein) of the synaptic vesicle preparation was incubated in wash buffer in the presence of [^3H]DHTBZ (2 nM final concentration except in kinetic analyses wherein 0.25-500 nM DHTBZ was employed) for 10 m in at 25° C. The reaction was terminated by addition of 1 ml cold wash buffer and rapid filtration through Whatman GF/F filters soaked in 0.5% polyethylenimine. Filters were washed three times with ice-cold wash buffer. Radioactivity trapped in filters was counted using a liquid scintillation counter. Nonspecific binding was determined by coincubation with 20 μM TBZ. All protein concentrations were determined by a Bio-Rad protein assay (Bio-Rad Inc.).

VMAT-2 [2] = biological target: T1, VMAT-2; type: in vivo; set-up: purified striatal vesicles prepared from treated rats; from tissue; host or cells: striatum of male Sprague-Dawley rats (synaptic vesicles; P2, P3, S3 fractions); settings: rats, MDMA 4 x 10 mg/kg s.c.
Protocol: Osmolarity was restored by addition of N-(2-hydroxyethyl)-piperazine-N′-2-ethanesulfonic acid (HEPES) and potassium tartrate 25 mM and 100 mM (final concentrations; pH 7.5 at 4° C.), respectively.

DAT [3] = biological target: T2, DAT (Rattus norvegicus, UniProt P23977); assay: In vitro preincubation of striatal synaptosomes with MDMA: [3H]DA uptake and WIN35428 binding; type: biochemical; settings: 30 min, 37° C.
T2 construct: from tissue; host or cells: striatum of male Sprague-Dawley rats (synaptosomes, P2)
Protocol: (§1) Uptake of [^3H]DA was determined in striatal synaptosomes prepared according to the method described by Kokoshka et al. (1998). Briefly, fresh striatal tissue was homogenized in cold 0.32 M sucrose and centrifuged (800×g for 12 min; 4° C.). The supernatant (S1) was then centrifuged (22,000×g for 15 min; 4° C.), and the resulting pellet (P2) was resuspended in ice-cold modified Kreb's buffer (in mM: 126 NaCl, 4.8 KCl, 1.3 CaCl2, 16 sodium phosphate, 1.4 MgSO4, 11 dextrose, 1-ascorbic acid, pH 7.4). Assays were conducted in Kreb's buffer. Each assay tube contained synaptosomal tissue (i.e., resuspended P2 obtained from 1.5 mg of original wet weight striatal tissue) and 1 μM pargyline. Nonspecific values were determined in the presence of 100 μM cocaine. After preincubation of assay tubes for 10 min at 37° C., assays were initiated by the addition of [^3H]DA (0.5 nM final concentration). Samples were incubated at 37° C. for 3 min. Samples were then filtered through Whatman GF/B filters (Brandel, Gaithersburg, Md.) soaked previously in 0.05% polyethylenimine. Filters were washed rapidly 3 times with 3 ml of ice-cold 0.32 M sucrose using a Brandel filtering manifold. […] Remaining resuspended P2 samples were assayed for protein concentrations according to the method of Lowry et al. (1951). In MDMA preincubation experiments, samples were preincubated with 10 μM MDMA for 30 min at 37° C. After 30 min, resuspended P2 fractions were “washed” by centrifugation (22,000×g for 15 min; 4° C.). The resulting pellet (P3) was then resuspeded in ice-cold Kreb's buffer, and once again centrifuged (22,000×g for 15 min; 4° C.) to obtain a P4 pellet that was subsequently resuspended and assayed. [^3H]WIN35428 binding (0.5 nM final concentration) was conducted in phosphate-buffered 0.32 M sucrose, pH 7.4, with synaptosomes obtained from 2 mg (original wet weight) of striatal tissue per reaction tube, and samples were incubated on ice for 2 hr. Samples were then filtered through Whatman GF/B filters (Brandel, Gaithersburg, Md.) soaked previously in 0.05% polyethylenimine. Filters were washed rapidly 3 times with 3 ml of ice-cold 0.32 M sucrose using a Brandel filtering manifold. […] Remaining resuspended P2 samples were assayed for protein concentrations according to the method of Lowry et al. (1951).

[4] = biological target: T3, plasmalemmal DA transporter (DAT) (Rattus norvegicus, UniProt P23977); assay: Plasmalemmal [3H]DA uptake in striatal synaptosomes prepared from treated rats; type: in vivo; settings: MDMA 4 x 10 mg/kg s.c.
T3 construct: from tissue; host or cells: striatum of male Sprague-Dawley rats (synaptosomes, P2)
Protocol: Uptake of [^3H]DA was determined in striatal synaptosomes prepared according to the method described by Kokoshka et al. (1998). Briefly, fresh striatal tissue was homogenized in cold 0.32 M sucrose and centrifuged (800×g for 12 min; 4° C.). The supernatant (S1) was then centrifuged (22,000×g for 15 min; 4° C.), and the resulting pellet (P2) was resuspended in ice-cold modified Kreb's buffer (in mM: 126 NaCl, 4.8 KCl, 1.3 CaCl2, 16 sodium phosphate, 1.4 MgSO4, 11 dextrose, 1-ascorbic acid, pH 7.4). Assays were conducted in Kreb's buffer. Each assay tube contained synaptosomal tissue (i.e., resuspended P2 obtained from 1.5 mg of original wet weight striatal tissue) and 1 μM pargyline. Nonspecific values were determined in the presence of 100 μM cocaine. After preincubation of assay tubes for 10 min at 37° C., assays were initiated by the addition of [^3H]DA (0.5 nM final concentration). Samples were incubated at 37° C. for 3 min. Samples were then filtered through Whatman GF/B filters (Brandel, Gaithersburg, Md.) soaked previously in 0.05% polyethylenimine. Filters were washed rapidly 3 times with 3 ml of ice-cold 0.32 M sucrose using a Brandel filtering manifold. […] Remaining resuspended P2 samples were assayed for protein concentrations according to the method of Lowry et al. (1951). In MDMA preincubation experiments, samples were preincubated with 10 μM MDMA for 30 min at 37° C. After 30 min, resuspended P2 fractions were “washed” by centrifugation (22,000×g for 15 min; 4° C.). The resulting pellet (P3) was then resuspeded in ice-cold Kreb's buffer, and once again centrifuged (22,000×g for 15 min; 4° C.) to obtain a P4 pellet that was subsequently resuspended and assayed. [^3H]WIN35428 binding (0.5 nM final concentration) was conducted in phosphate-buffered 0.32 M sucrose, pH 7.4, with synaptosomes obtained from 2 mg (original wet weight) of striatal tissue per reaction tube, and samples were incubated on ice for 2 hr. Samples were then filtered through Whatman GF/B filters (Brandel, Gaithersburg, Md.) soaked previously in 0.05% polyethylenimine. […]

DAT [5] = biological target: T2, DAT; assay: [3H]WIN35428 binding in striatal synaptosomes prepared from treated rats; type: in vivo; settings: MDMA 4 x 10 mg/kg s.c.
Protocol: as §1

[6] = biological target: T3, plasmalemmal DA transporter (DAT); settings: MDMA-treated rats, multiple high-dose, Metzger et al., 1998, cited from earlier work
VMAT-2 [7] = biological target: VMAT-2 (Mus musculus, UniProt Q8BRU6); assay: Vesicular [3H]dopamine uptake in striatal vesicles prepared from treated mice; type: in vivo; settings: MDMA 4 x 10 mg/kg s.c.
Protocol: (A. E. Fleckenstein, et al., J. Pharmacol Exp Ther. (1997) 282:834-838). Briefly, fresh tissue was homogenized in ice-cold 0.32 M sucrose. The homogenate was centrifuged (800×g for 12 min; 4° C.), and the supernatant (S1) was carefully removed and centrifuged (22,000×g for 15 min; 4° C.) to obtain the synaptosomal-containing pellet (P2). The resulting P2 were resuspended and homogenized in ice-cold distilled deionized water. Osmolarity was restore by addition 25 mM HEPES and 100 mM potassium tartrate (final concentration; pH 7.5 at 4° C. respectively). […] The resultant S3 removed and MgSO4 added (final concentration of [1 mM] pH 7.5 at 4° C.) and centrifuged at 100,000×g for 45 min. The final P4 were resuspended at 50 mg/ml (original tissue wet weight).

T2 sequence (P23977 whole entry): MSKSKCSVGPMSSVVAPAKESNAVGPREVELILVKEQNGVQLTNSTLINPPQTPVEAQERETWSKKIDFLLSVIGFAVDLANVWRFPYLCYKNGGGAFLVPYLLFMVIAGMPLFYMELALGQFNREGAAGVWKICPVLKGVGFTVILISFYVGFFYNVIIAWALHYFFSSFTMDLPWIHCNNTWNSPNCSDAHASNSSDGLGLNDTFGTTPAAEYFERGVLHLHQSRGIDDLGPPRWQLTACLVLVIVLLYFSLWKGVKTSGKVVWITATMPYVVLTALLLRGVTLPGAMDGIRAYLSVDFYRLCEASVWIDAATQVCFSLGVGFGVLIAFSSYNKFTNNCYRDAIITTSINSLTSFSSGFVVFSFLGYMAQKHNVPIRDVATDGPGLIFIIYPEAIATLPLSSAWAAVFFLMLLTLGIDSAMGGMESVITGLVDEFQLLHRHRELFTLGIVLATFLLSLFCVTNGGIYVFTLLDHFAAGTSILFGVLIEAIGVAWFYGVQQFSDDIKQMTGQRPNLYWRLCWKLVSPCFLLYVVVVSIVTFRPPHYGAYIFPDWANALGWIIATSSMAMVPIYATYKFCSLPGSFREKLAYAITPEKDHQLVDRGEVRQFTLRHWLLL
T3 sequence (P23977 whole entry): as above
T1 sequence (Q01827 whole entry): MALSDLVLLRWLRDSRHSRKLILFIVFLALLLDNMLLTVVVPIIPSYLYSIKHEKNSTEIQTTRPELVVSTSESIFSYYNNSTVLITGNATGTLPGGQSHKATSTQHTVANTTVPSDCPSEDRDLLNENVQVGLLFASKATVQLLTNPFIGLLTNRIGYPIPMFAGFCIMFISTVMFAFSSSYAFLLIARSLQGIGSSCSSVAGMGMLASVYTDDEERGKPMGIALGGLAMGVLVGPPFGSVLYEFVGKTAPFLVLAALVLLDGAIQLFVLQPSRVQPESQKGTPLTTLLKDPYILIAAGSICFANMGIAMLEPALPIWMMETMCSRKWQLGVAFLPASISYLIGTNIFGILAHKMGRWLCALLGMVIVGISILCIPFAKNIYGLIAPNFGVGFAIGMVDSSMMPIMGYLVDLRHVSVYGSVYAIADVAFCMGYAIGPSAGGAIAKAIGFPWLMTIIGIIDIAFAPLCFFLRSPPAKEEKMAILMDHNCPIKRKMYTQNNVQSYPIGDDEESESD
VMAT-2 (Mus musculus, UniProt Q8BRU6), sequence (Q8BRU6 whole entry): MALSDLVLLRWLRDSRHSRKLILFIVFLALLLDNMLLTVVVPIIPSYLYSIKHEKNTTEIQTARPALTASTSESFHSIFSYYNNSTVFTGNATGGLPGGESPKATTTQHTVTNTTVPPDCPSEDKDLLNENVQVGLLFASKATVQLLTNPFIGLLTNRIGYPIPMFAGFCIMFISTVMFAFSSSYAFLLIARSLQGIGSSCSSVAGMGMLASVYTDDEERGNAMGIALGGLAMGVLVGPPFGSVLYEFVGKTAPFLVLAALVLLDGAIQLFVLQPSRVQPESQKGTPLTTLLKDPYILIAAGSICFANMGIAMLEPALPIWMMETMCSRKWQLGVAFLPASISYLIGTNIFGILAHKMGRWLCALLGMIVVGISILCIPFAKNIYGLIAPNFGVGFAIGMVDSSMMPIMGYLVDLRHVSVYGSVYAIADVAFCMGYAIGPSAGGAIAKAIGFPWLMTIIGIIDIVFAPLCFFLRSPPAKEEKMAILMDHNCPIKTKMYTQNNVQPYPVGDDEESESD

For `CNC(C)Cc1ccc2c(c1)OCO2` (stereo not drawn) [MDMA, methylenedioxymethamphetamine], the “binding of the VMAT-2 ligand [3H]DHTBZ” value (VMAT-2 [1]) was “reduced”, the “deficit in vesicular DA uptake” value (VMAT-2 [2]; 1 h) was 25-30% and the “vesicular DA uptake 1 h after multiple MDMA administrations” value (VMAT-2 [2]; 1 h) was “rapidly decreased”. The “deficit in vesicular DA uptake 24 h after drug treatment” value (VMAT-2 [2]; 24 h) was “partially recovered”, the “WIN35428 binding after incubation of synaptosomes with MDMA” value (DAT [3]; MDMA 10 μM) was “no effect” and the “decrease in DA uptake in vitro” value (DAT [3]; striatal synaptosomes incubated with MDMA 10 μM) was 35-55%. For the same compound, the “magnitude of the decrease in plasmalemmal DA uptake” value ([4]; 2-h intervals, 1 h) was 35-55%, the “deficit in plasmalemmal DA uptake 24 h after drug treatment” value ([4]; 24 h) was “reversed” and the “WIN35428 binding in the body temperature experiment” value (DAT [5]; 6 or 24° C. ambient, 1 h (data not shown)) was “not affected”. For the same compound, the “decrease in WIN35428 binding” value (DAT [5]; 1 h after treatment) was 10% and 18%, the “deficit in WIN35428 binding 24 h after drug treatment” value (DAT [5]; 24 h) was “persisted” and the “Vmax of plasmalemmal DA uptake” value [6] was 1410 fmol/μg/5 min. For the same compound, the Km ([6]; read-out: transporter Km of plasmalemmal DA uptake) was 0.0989 µM, the “vesicular dopamine uptake after multiple MDMA administrations” value (VMAT-2 [7]; 1 h) was “rapidly decreased” and the “decrease in vesicular dopamine uptake 24 h later” value (VMAT-2 [7]; 24 h) was “largely reversed”.
